Consider 2 compounds from article PMC10226046, “Prodrug Strategies for the Development of β-L-5-((E)-2-Bromovinyl)-1-((2S,4S)-2-(hydroxymethyl)-1,3-(dioxolane-4-yl))uracil (L-BHDU) against Varicella Zoster Virus (VZV)” (Journal of Medicinal Chemistry, 2023).

Read-outs that look alike come from different tables or passages of the source.

For data set [1] the following is noted: mouse, in vivo; cited from earlier work.
In data set [2] the test system is VZV-ORF57-ΔTS. Kind of data set: microbe, parasite or virus in culture. It is filed as cell-based, Varicella zoster virus. The following applies: Human alphaherpesvirus 3, ARPE-19.
Data set [3] concerns VZV-ORF57-ΔTK. The experiment in a line: microbe, parasite or virus in culture. It is filed as cell-based, Varicella zoster virus. The note with it: Human alphaherpesvirus 3, ARPE-19.
The nature of data set [4]: Neutral red dye uptake cytotoxicity assay in ARPE-19 cells. The note with it: human.
Data set [5] deals with human foreskin fibroblasts (HFFs). Details: method as in PMID 25051026. The note with it: cited from earlier work.
Data set [6] deals with VZV-ORF57-Luc. Kind of data set: microbe, parasite or virus in culture. The note with it: Human alphaherpesvirus 3, ARPE-19, cell-free VZV-ORF57-Luc, ARPE-19 cells, 72 hpi, bioluminescence imaging.
In data set [7] the test system is VZV-ORF57-Luc. The experiment in a line: microbe, parasite or virus in culture. Type of data set: cell-based, Varicella zoster virus. The note with it: Human alphaherpesvirus 3, ARPE-19.
For data set [8], the system named is VZV-ORF57-ΔTKTS. Kind of data set: microbe, parasite or virus in culture. It is filed as cell-based, Varicella zoster virus. The note with it: Human alphaherpesvirus 3, ARPE-19.
Data set [9] relates to VZV-ORF57-Luc.
Details of data set [10]: method as in PMID 25051026. The following applies: measured in various mouse organs; cited from earlier work.
Details of data set [11]: method as in PMID 25051026. The following applies: mice treated with L-BHDU; cited from earlier work.
Data set [12] concerns VZV. The note with it: 15 mg/kg/day, SCID-hu mouse with human fetal skin xenografts; cited from earlier work. A general note: In xenograft studies the graft and the host belong to different species.
Data set [13] is described as follows: Oral pharmacokinetic absorption study in BALB/c mice (plasma, LC-MS/MS). Type of data set: in vivo. The note with it: both sexes, mouse, analyte L-BHDU in plasma, 11.4 mg/kg L-BHDU oral, BALB/c mice. On the procedure: A pharmacokinetic absorption study was performed in BALB/c mice (Charles River). A single equimolar dose of 22.5 mg/kg POM-L-BHDU-MP or 11.4 mg/kg L-BHDU was dissolved in Cremophor–dimethyl sulfoxide (DMSO)–saline (1:1:8) and administered by oral gavage to two groups of mice with equal numbers of male and female mice (N = 15 each male and female).
Plasma was separated from red blood cells and immediately frozen at −80 °C.
This animal protocol #282 was approved by the IACUC at SUNY Upstate Medical University, which has been fully accredited by AAALAC since 7/31/1999. This method was previously used to evaluate L-BHDU effects on 5-fluorouracil metabolism.[16] Briefly, a single equimolar dose of 22.5 mg/kg POM-L-BHDU-MP or 11.4 mg/kg L-BHDU was dissolved in Cremophor–DMSO–saline (1:1:8) and administered by oral gavage to two groups of BALB/c mice (Charles River) with equal numbers of male and female mice (N = 15 each male and female). Six untreated mice were used for blank controls and were labeled time 0. At 20, 40, 60, and 120 min, three mice from the POM-L-BHDU-MP group and three mice from the L-BHDU group were anesthetized with inhaled isoflurane and then exsanguinated by cardiac puncture. Blood samples were collected into a tube containing heparin. Plasma was separated from red blood cells by centrifugation at 10,000 rpm for 5 min. Plasma was transferred to a new tube and immediately frozen at −80 °C.
Plasma samples were thawed, and exactly 0.95 mL was removed for analysis. The internal standard azidothymidine was added to mouse plasma samples at a final concentration of 20 ng/mL. Proteins were precipitated from the plasma by adding 2× volumes of methanol, then the samples were clarified by centrifugation. The supernatants were dried using an N-EVAP 116 analytical nitrogen evaporator and then reconstituted with 50% methanol in water. LC-MS/MS was used to analyze the concentrations of POM-L-BHDU-MP, L-BHDU, and L-BHDU-MP. Calibration curves were made using BALB/c mouse plasma (Innovative Research, Inc. Novi MI) prior to analyzing the experimental samples.
The primary stock solutions for the calibration were prepared at 0.5 mg/mL for L-BHDU, 1 mg/mL for POM-L-BHDU-MP, and 1 mg/mL for L-BHDU-MP. The primary stock solutions were diluted to working solutions that were in turn used to spike the biological matrix of interest. L-BHDU calibration points were 100.0, 400.0, 800.0, 1000.0, 4000.0, 6000.0, 8000.0, 10,000.0, and 12,000.0 ng/mL. L-BHDU-MP calibration points were 100.0, 200.0, 400.0, 800.0, 1000.0, 2000.0, 4000.0, 6000.0, and 8000.0 ng/mL. The ISTD working solution of AZT was prepared at 20 ng/mL. The standard stock solutions were stored in −80 °C freezer until used. […] The samples were analyzed in a negative ESI mode. […]

Data set [14] concerns VZV. Further details: method as in PMID 25051026. The note with it: VZV in human foreskin fibroblasts (HFFs); cited from earlier work.
[15] abbreviates: selectivity index = CC50/EC50, ARPE-19 cells.

With `O=c1[nH]c(=O)n([C@@H]2CO[C@H](CO)O2)cc1/C=C/Br` [L-BHDU (1), β-L-5-((E)-2-bromovinyl)-1-((2S,4S)-2-(hydroxymethyl)-1,3-(dioxolane-4-yl))uracil], the “well tolerated up to (dose)” value in [1] is “up to 150 mg/kg”. Further, the EC50 in data set [2] was 28 nM; in [3], more than 2000 nM; in data set [6], 25.8 nM; in [7] it was 180 nM; in [8], more than 2000 nM. In data set [4], this compound gave a CC50 at 72 h of more than 100000 nM. Moreover, in data set [5] (HFFs), the “not cytotoxic up to” value was “up to 200 μM”. Moreover, the “SI (CC50/EC50)” value in data set [9] and in [9] (setting [15]) was more than 3878 throughout. The brain penetration entry in data set [10] is “did not penetrate the brain”. Also, the “5-FU accumulation in treated mice” value in data set [11] was “did not accumulate”. Moreover, the “effect on VZV replication” value in data set [12] is “effectively reduced VZV replication”. In data set [13], this compound returned a Cmax at 2 h of 7100 ng/mL. Also, in [13], the Tmax at 2 h was 2 h. In data set [13] (0 to 120 min), the AUC at 2 h is 12700 ng·h/mL.

For `CC(C)[C@@H](N)C(=O)OC[C@H]1OC[C@@H](n2cc(/C=C/Br)c(=O)[nH]c2=O)O1.Cl` [L-BHDU-L-valine (17), L-BHDU-5′-O-L-valyl Ester Hydrochloride], the EC50 in data set [14] is 30 nM; in data set [6] it was 30 nM; in data set [9] (cell-free VZV-ORF57-Luc, ARPE-19 cells, 72 hpi, bioluminescence imaging), 30.1 nM. The CC50 at 72 h in data set [4] was more than 100000 nM. Further, the CC50 in data set [5] is more than 200000 nM. Besides, the “SI (CC50/EC50)” value in data set [9] was more than 3322; in data set [9] (setting [15]), more than 3322; in [9] (selectivity index = CC50/EC50, ARPE-19 cells, listed as 17), more than 3322.

A word on the EC50: it is the concentration needed to bring the measured effect to its halfway point. For orientation: Cmax means the maximum level reached in the sampled fluid or tissue. The Tmax is the time at which the peak concentration occurs. In general, AUC refers to the area under the concentration-time curve, a measure of exposure. A higher AUC goes with more exposure.
